The EC50 is the concentration that produces a half-maximal response.

The assay has as its target T1, GST-RIPK1 (recombinant GST-RIPK1 kinase domain (residues 1-327)) (Homo sapiens, UniProt Q13546).
T1 construct: recombinant GST-RIPK1 kinase domain (residues 1-327) enzyme produced from baculovirus-transfected Sf21 cells; host or cells: baculovirus-transfected Sf21 insect cells
T1 sequence (Q13546 1-327): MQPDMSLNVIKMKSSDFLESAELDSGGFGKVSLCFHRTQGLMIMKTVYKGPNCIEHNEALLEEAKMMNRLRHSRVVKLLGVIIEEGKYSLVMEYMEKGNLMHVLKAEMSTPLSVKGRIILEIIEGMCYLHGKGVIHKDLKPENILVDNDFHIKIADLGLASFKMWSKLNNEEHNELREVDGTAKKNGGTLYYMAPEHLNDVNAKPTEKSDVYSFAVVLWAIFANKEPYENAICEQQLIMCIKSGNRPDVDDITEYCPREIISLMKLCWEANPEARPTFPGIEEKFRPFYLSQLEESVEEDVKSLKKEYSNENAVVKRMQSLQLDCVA
Briefly: RIPK1-ADP-Glo Enzymatic Assay. It is filed as biochemical. The settings on record: ten-point titration, top compound concentration of 100000 nM; 25 nM GST-RIPK1, 300 μM ATP, 3 μM dephosphorylated-MBP; 30 min pre-incubation, 150 min reaction. The essentials: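 ADP-Glo luminescence quantifies ADP formed over 150 minutes by 25 nM Sf21-produced GST-RIPK1 (1-327) using 300 μM ATP and 3 μM dephosphorylated MBP, following 30-minute compound preincubation at 1% DMSO. Ten-point 1:3 series from 100000 nM gave EC50 via four-parameter sigmoidal regression.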
For orientation: ADP-Glo turns the ADP formed in a reaction into a luminescent signal.

On to `Cc1nc(O[C@H]2C[C@@]3(C2)O[C@@H]2CC[C@@H](c4cc(F)cc(F)c4)N2C3=O)c2cccn2n1` [Example 9.29, (1r,3R,5′S,7a′R)-5′-(3,5-difluorophenyl)-3-[(2-methylpyrrolo[2,1-f][1,2,4]triazin-4-yl)oxy]tetrahydro-3′H-spiro[cyclobutane-1,2′-pyrrolo[2,1-b][1,3]oxazol]-3′-one], for which the EC50 was 47 nM.

Regarding `Cn1ccc([C@@H]2CC[C@H]3OC4(CC(Oc5cncc(Cl)c5)C4)C(=O)N32)n1` (stereo partly drawn) [Example 19.9, (5′S,7a′R)-3-[(5-chloropyridin-3-yl)oxy]-5′-(1-methyl-1H-pyrazol-3-yl)tetrahydro-3′H-spiro[cyclobutane-1,2′-pyrrolo[2,1-b][1,3]oxazol]-3′-one], the EC50 worked out at 397 nM. For `CCC(C)Oc1cccc(COC2CC3(C2)O[C@@H]2CC[C@@H](c4cnccn4)N2C3=O)n1` (stereo partly drawn) [Example 18.66, (5′S,7a′R)-3-({6-[(butan-2-yl)oxy]pyridin-2-yl}methoxy)-5′-(pyrazin-2-yl)tetrahydro-3′H-spiro[cyclobutane-1,2′-pyrrolo[2,1-b][1,3]oxazol]-3′-one], the concentration for a half-maximal effect (EC50) was 141 nM. For the compound `N#Cc1cc(O[C@H]2C[C@@]3(C2)O[C@H]2CC[C@H](c4cnccn4)N2C3=O)ncn1` [Example 9.50, 6-(((5′R,7a′S)-3′-oxo-5′-(pyrazin-2-yl)tetrahydro-3′H-spiro[cyclobutane-1,2′-pyrrolo[2,1-b]oxazol]-3-yl)oxy)pyrimidine-4-carbonitrile], the EC50 is 330 nM. As to `COc1cc(COC2CC3(C2)OC2CC[C@@H](c4cnccn4)N2C3=O)cc2nccn12` (stereo partly drawn) [Example 18.34, (5′S)-3-[(5-methoxyimidazo[1,2-a]pyridin-7-yl)methoxy]-5′-(pyrazin-2-yl)tetrahydro-3′H-spiro[cyclobutane-1,2′-pyrrolo[2,1-b][1,3]oxazol]-3′-one], the concentration giving a half-maximal response (EC50) stood at 231 nM. Regarding `O=C1N2C(CC[C@H]2c2cnccn2)OC12CC(OCc1ccc3nc(C4CC4)cn3c1)C2` (stereo partly drawn) [Example 18.22, (5′S)-3-[(2-cyclopropylimidazo[1,2-a]pyridin-6-yl)methoxy]-5′-(pyrazin-2-yl)tetrahydro-3′H-spiro[cyclobutane-1,2′-pyrrolo[2,1-b][1,3]oxazol]-3′-one], the EC50 is 74 nM. For the compound `O=C1N2[C@@H](CC[C@H]2c2cc(F)cc(F)c2)OC12CC(Oc1ncccc1F)C2` (stereo partly drawn) [Example 9.38, (5′S,7a′R)-5′-(3,5-difluorophenyl)-3-[(3-fluoropyridin-2-yl)oxy]tetrahydro-3′H-spiro[cyclobutane-1,2′-pyrrolo[2,1-b][1,3]oxazol]-3′-one], the concentration giving a half-maximal response (EC50) was determined as 29 nM. As to `O=C1N2[C@@H](CC[C@H]2c2ccc(F)cc2)O[C@]12C[C@H](Oc1cc(-c3nn[nH]n3)ccn1)C2` [Example 10.7, (1r,3R,5′S,7a′R)-3-((4-(2H-tetrazol-5-yl)pyridin-2-yl)oxy)-5′-(4-fluorophenyl)tetrahydro-3′H-spiro[cyclobutane-1,2′-pyrrolo[2,1-b]oxazol]-3′-one], the EC50 was found to be 27 nM. As to `Cn1ccc([C@@H]2CC[C@H]3OC4(CC(Oc5cccc(-c6ccnn6C)c5)C4)C(=O)N32)n1` (stereo partly drawn) [Example 19.10, (5′S,7a′R)-5′-(1-methyl-1H-pyrazol-3-yl)-3-[3-(1-methyl-1H-pyrazol-5-yl)phenoxy]tetrahydro-3′H-spiro[cyclobutane-1,2′-pyrrolo[2,1-b][1,3]oxazol]-3′-one], the EC50 was determined as 30 nM. `O=C1N2[C@@H](CC[C@H]2c2ccccc2)OC12CC(Oc1cccc(-c3nnco3)c1)C2` (stereo partly drawn) [Example 8.16, (5′S,7a′R)-3-[3-(1,3,4-oxadiazol-2-yl)phenoxy]-5′-phenyltetrahydro-3′H-spiro[cyclobutane-1,2′-pyrrolo[2,1-b][1,3]oxazol]-3′-one]: the EC50 was 58 nM.

Take `O=C1N2[C@@H](CC[C@H]2c2cc(F)cc(F)c2)O[C@]12C[C@H](Oc1nccc3nccn13)C2` [Example 9.21, (1r,3R,5′S,7a′R)-5′-(3,5-difluorophenyl)-3-[(imidazo[1,2-c]pyrimidin-5-yl)oxy]tetrahydro-3′H-spiro[cyclobutane-1,2′-pyrrolo[2,1-b][1,3]oxazol]-3′-one]: the concentration for a half-maximal effect (EC50) is 14 nM. On to `O=C1N2[C@@H](CC[C@H]2c2cc(F)cc(F)c2)O[C@]12C[C@H](Oc1nccc3ncnn13)C2` [Example 9.23, (1r,3R,5′S,7a′R)-5′-(3,5-difluorophenyl)-3-[([1,2,4]triazolo[1,5-c]pyrimidin-5-yl)oxy]tetrahydro-3′H-spiro[cyclobutane-1,2′-pyrrolo[2,1-b][1,3]oxazol]-3′-one], for which the concentration for a half-maximal effect (EC50) was determined as 55 nM.

Turning to `N#CC1(c2ccc(COC3CC4(C3)OC3CC[C@@H](c5cnccn5)N3C4=O)cn2)CCC1` (stereo partly drawn) [Example 18.28, 1-[5-({[(5′S)-3′-oxo-5′-(pyrazin-2-yl)tetrahydro-3′H-spiro[cyclobutane-1,2′-pyrrolo[2,1-b][1,3]oxazol]-3-yl]oxy}methyl)pyridin-2-yl]cyclobutane-1-carbonitrile], the EC50 came out at 174 nM. Consider `O=C1N2C(CC[C@H]2c2cnccn2)OC12CC(OCc1ccc3nc(C(F)(F)F)cn3c1)C2` (stereo partly shown) [Example 18.103], for which the EC50 was 607 nM. For the compound `O=C1N2C(CC[C@H]2c2cnccn2)OC12CC(OCc1ccc3nc(C(F)(F)F)sc3c1)C2` (stereo partly drawn) [Example 18.97, (5′S)-5′-(pyrazin-2-yl)-3-{[2-(trifluoromethyl)-1,3-benzothiazol-6-yl]methoxy}tetrahydro-3′H-spiro[cyclobutane-1,2′-pyrrolo[2,1-b][1,3]oxazol]-3′-one], the EC50 came to 289 nM.

With `O=C1N2C(CC[C@H]2c2cnccn2)OC12CC(OCc1cncc(OCCF)c1)C2` (stereo partly drawn) [Example 18.27, (5′S)-3-{[5-(2-fluoroethoxy)pyridin-3-yl]methoxy}-5′-(pyrazin-2-yl)tetrahydro-3′H-spiro[cyclobutane-1,2′-pyrrolo[2,1-b][1,3]oxazol]-3′-one], the half-maximal effective concentration (EC50) is 126 nM. `O=C1N2[C@@H](CC[C@H]2c2cnccn2)OC12CC(OCc1cnn(C34CC(C3)C4)c1)C2` (stereo partly drawn) [Example 18.6, (5′S, 7a′R)-3-{[1-(bicyclo[1.1.1]pentan-1-yl)-1H-pyrazol-4-yl]methoxy}-5′-(pyrazin-2-yl)tetrahydro-3′H-spiro[cyclobutane-1,2′-pyrrolo[2,1-b][1,3]oxazol]-3′-one]: the 50% effective concentration (EC50) came out at 365 nM. Regarding “5-{[(1r,3R,5′S,7a′R)-3′-oxo-5′- phenyltetrahydro-3′H- spiro[cyclobutane-1,2′-pyrrolo[2,1- b][1,3]oxazol]-3-yl]oxy}pyridine-3- carbonitrile [Example 9.15]”, the EC50 is 73 nM.

Regarding `Cn1cc(C2CCC3OC4(CC(Oc5cc(C#N)ncn5)C4)C(=O)N32)cn1` (single isomer, unassigned) [Example 6.1, 6-((((1r or s),3R,5′(S or R),7a′R)-5′-(1-methyl-1H-pyrazol-4-yl)-3′-oxotetrahydro-3′H-spiro[cyclobutane-1,2′-pyrrolo[2,1-b]oxazol]-3-yl)oxy)pyrimidine-4-carbonitrile], the half-maximal effective concentration (EC50) was 93400 nM. Under `CC(OC1CC2(C1)O[C@@H]1CC[C@@H](c3cc(F)cc(F)c3)N1C2=O)c1ncccc1F` (single isomer, unassigned) [Example 12.4, (1S or R,3S or R,5′S,7a′R)-5′-(3,5-difluorophenyl)-3-((S or R)-1-(3-fluoropyridin-2-yl)ethoxy)tetrahydro-3′H-spiro[cyclobutane-1,2′-pyrrolo[2,1-b]oxazol]-3′-one] stands 329 nM; under `O=C1N2[C@H](O[C@]13C[C@@H](OCc1ccccc1)C3)[C@@H](O)C[C@H]2c1cnccn1` [Example 21.1, (1s,3S,5′S,7′S,7a′R)-3-(benzyloxy)-7′-hydroxy-5′-(pyrazin-2-yl)tetrahydro-3′H-spiro[cyclobutane-1,2′-pyrrolo[2,1-b]oxazol]-3′-one], 255 nM; under `COc1ccc(COC2CC3(C2)OC2CC[C@@H](c4cnccn4)N2C3=O)cc1CC#N` (stereo partly drawn) [Example 18.86, [2-methoxy-5-({[(5′S)-3′-oxo-5′-(pyrazin-2-yl)tetrahydro-3′H-spiro[cyclobutane-1,2′-pyrrolo[2,1-b][1,3]oxazol]-3-yl]oxy}methyl)phenyl]acetonitrile], 94 nM. Turning to `O=C1N2C(CC[C@H]2c2cnccn2)OC12CC(OCc1cnc3nccn3c1)C2` (stereo partly drawn) [Example 18.94, (5′S)-3-[(imidazo[1,2-a]pyrimidin-6-yl)methoxy]-5′-(pyrazin-2-yl)tetrahydro-3′H-spiro[cyclobutane-1,2′-pyrrolo[2,1-b][1,3]oxazol]-3′-one], the concentration for a half-maximal effect (EC50) came out at 283 nM. On to `O=C1N2C(CC[C@H]2c2cnccn2)OC12CC(OCc1ccc(C(F)F)cn1)C2` (stereo partly drawn) [Example 18.11, (5′S)-3-{[5-(difluoromethyl)pyridin-2-yl]methoxy}-5′-(pyrazin-2-yl)tetrahydro-3′H-spiro[cyclobutane-1,2′-pyrrolo[2,1-b][1,3]oxazol]-3′-one], for which the concentration for a half-maximal effect (EC50) was determined as 89 nM.

`Cc1ccc(OC2CC3(C2)O[C@@H]2CC[C@@H](c4ccn(C)n4)N2C3=O)cn1` (stereo partly drawn) [Example 19.7, (5′S,7a′R)-5′-(1-methyl-1H-pyrazol-3-yl)-3-[(6-methylpyridin-3-yl)oxy]tetrahydro-3′H-spiro[cyclobutane-1,2′-pyrrolo[2,1-b][1,3]oxazol]-3′-one]: the EC50 amounted to 531 nM.

Source of the values: patent publication US20250154173A1 (Merck Sharp & Dohme LLC, priority 2023, published 2025).
